Assays:
human ETA receptors = biological target: T1, human ETA receptors (Homo sapiens, UniProt P25101); assay: Endothelin binding inhibition, Binding Test #1: competition with 125I-ET-1 for ETA receptors on TE 671 cell membranes; conditions: incubation at 24° C. (values marked †)
T1 construct: endogenous in cells; host or cells: TE 671 cells (ATCC HTB 139), membrane preparation
T1 sequence (P25101 21-427): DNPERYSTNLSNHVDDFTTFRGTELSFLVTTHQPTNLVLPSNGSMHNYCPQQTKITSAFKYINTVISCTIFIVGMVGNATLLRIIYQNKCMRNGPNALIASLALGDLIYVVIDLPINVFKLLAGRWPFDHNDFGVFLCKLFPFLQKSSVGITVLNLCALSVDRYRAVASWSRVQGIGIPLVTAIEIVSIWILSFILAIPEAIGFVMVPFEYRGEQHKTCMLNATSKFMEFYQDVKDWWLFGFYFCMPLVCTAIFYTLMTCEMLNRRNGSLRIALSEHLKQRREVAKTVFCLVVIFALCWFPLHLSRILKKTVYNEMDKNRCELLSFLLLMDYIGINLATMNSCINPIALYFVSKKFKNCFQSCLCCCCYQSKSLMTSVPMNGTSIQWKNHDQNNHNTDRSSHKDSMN
Method: (§1) Cells from multiple flasks were collected by scraping, pooled and centrifuged for 10 min at 190×g. The cells were resuspended in phosphate buffered saline (PBS) containing 10 mM EDTA using a Tenbroeck homogenizer. The suspension was centrifuged at 4° C. at 57,800×g for 15 min, the pellet was resuspended in 5 mL of buffer A (5 mM HEPES buffer, pH 7.4 containing aprotinin (100 KIU/mL)) and then frozen and thawed once. 5 mL of Buffer B (5 mM HEPES Buffer, pH 7.4 containing 10 mM MnCl2 and 0.001% deoxyribonuclease Type 1) was added, the suspension mixed by inversion and then incubated at 37° C. for 30 minutes. The mixture was centrifuged at 57,800×g as described above, the pellet washed twice with buffer A and then resuspended in buffer C (30 mM HEPES buffer, pH 7.4 containing aprotinin (100 KIU/mL) to give a final protein concentration of 2 mg/mL and stored at −70° C. until use.
The membrane suspension (50 μL), containing up to 8 μg of membrane protein, was added to each of (A), (B), or (C). […] Alternatively, the incubation was conducted at 24° C.
The supernatant, containing unbound radioactivity, was decanted and the pellet counted on a Genesys multiwell gamma counter. The degree of inhibition of binding (D) was calculated according to the following equation: [formula]
Each test was generally performed in triplicate.

human ETB receptor = biological target: T2, human ETB receptor (Homo sapiens, UniProt P24530); assay: Endothelin binding inhibition, Binding Test #2: competition with 125I-ET-1 for ETB receptors on transfected COS7 cell membranes; conditions: for IC50: incubation at 24° C. (values marked †)
T2 construct: expressed in transfected cells; host or cells: COS7 cells
T2 sequence (P24530 27-442): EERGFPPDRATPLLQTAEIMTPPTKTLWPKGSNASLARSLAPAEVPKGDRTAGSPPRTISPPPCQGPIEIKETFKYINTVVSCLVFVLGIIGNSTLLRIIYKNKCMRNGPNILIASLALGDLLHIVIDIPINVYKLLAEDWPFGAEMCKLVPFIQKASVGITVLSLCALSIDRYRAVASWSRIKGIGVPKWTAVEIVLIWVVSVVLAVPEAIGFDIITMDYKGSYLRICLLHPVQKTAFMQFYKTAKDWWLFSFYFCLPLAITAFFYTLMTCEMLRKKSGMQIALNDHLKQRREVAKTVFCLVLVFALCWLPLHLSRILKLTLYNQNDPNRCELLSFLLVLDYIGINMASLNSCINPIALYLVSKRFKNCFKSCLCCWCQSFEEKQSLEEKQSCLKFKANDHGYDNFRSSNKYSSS
Source text: Compounds that are potential endothelin antagonists are identified by testing their ability to compete with ^125I-labeled ET-1 for binding to human ETA receptors or ETB receptors present on isolated cell membranes. The effectiveness of the test compound as an antagonist or agonist of the biological tissue response of endothelin can also be assessed by measuring the effect on endothelin induced contraction of isolated rat thoracic aortic rings. The ability of the compounds to act as antagonists or agonists for ETB receptors can be assess by testing the ability of the compounds are to inhibit endothelin-1 induced prostacyclin release from cultured bovine aortic endothelial cells.
COS7 cells were transfected with DNA encoding the ETB receptor, The resulting cells, which express the human ETB receptor, were grown to confluence in T-150 flasks. Membrane was prepared as described above. The binding assay was performed as described above using the membrane preparation diluted with binding buffer to a concentration of 1 μg/50 μL.
as §1, with “Briefly, the COS7 cells, described above, that had been transfected with DNA encoding the ETB receptor and express the human ETB receptor on their surfaces were grown to confluence in T-175 flasks. Cells” for “Cells”, “C.” for “C. at”, “once. Five” for “once. 5”, “2 mg/mL.” for “2 mg/mL and stored at −70° C. until use.”
The binding assay was performed as described above using the membrane preparation diluted to give 1 μg/50 μL of binding buffer.

SMILES | IC50 (human ETA receptors) [µM] | IC50 (human ETB receptor) [µM] | inhibition at 100 µM (human ETB receptor; read-out: ETB % inhibition @ 100 μM, @ 100 μM, incubation at 24° C.) [%]
Cc1noc(NS(=O)(=O)c2ccsc2NC(=O)Oc2ccc3c(c2)OCO3)c1Br [N-(4-bromo-3-methyl-5-isoxazolyl)-2-[3,4-(methylenedioxy)phenoxycarbonylamino]thiophene-3-sulfonamide] | 0.087 | 5.9 | –
Cc1cc(C)c(OCc2sccc2S(=O)(=O)Nc2onc(C)c2Br)c(C)c1 [N-(4-bromo-3-methyl-5-isoxazolyl)-2-[(2,4,6-trimethylphenoxy)methyl]thiophene-3-sulfonamide] | 0.0562 | 3.39 | –
Cc1noc(NS(=O)(=O)c2ccsc2COc2ccc3c(c2Cl)OCO3)c1Br [N-(4-bromo-3-methyl-5-isoxazolyl)-2-[(2-chloro-3,4-methylenedioxy)phenoxymethyl]thiophene-3-sulfonamide] | 13 | 0.76 | –
Cc1ccccc1OC(=O)c1sccc1S(=O)(=O)Nc1onc(C)c1Br [N-(4-bromo-3-methyl-5-isoxazolyl)-2-[(2-methylphenoxy)carbonyl]thiophene-3-sulfonamide] | 0.684 | 105 | –
Cc1noc(NS(=O)(=O)c2ccsc2C(=O)NC(=O)c2ccc3c(c2)OCO3)c1Br [N-(4-bromo-3-methyl-5-isoxazolyl)-2-[(3,4-methylenedioxy)benzoyl]aminocarbonyl]thiophene-3-sulfonamide] | 0.089 | 37 | –
Cc1noc(NS(=O)(=O)c2ccsc2Cc2ccc3c(c2)OCO3)c1Br [N-(4-bromo-3-methyl-5-isoxazolyl)-2-[(3,4-methylenedioxy)benzyl]thiophene-3-sulfonamide] | 0.27 | 7.7 | –
Cc1noc(NS(=O)(=O)c2ccsc2C(=O)Nc2cccc(C(=O)O)c2)c1Br [N-(4-bromo-3-methyl-5-isoxazolyl)-2-[(3-carboxyphenyl)aminocarbonyl]thiophene-3-sulfonamide] | 0.062 | > 100 | –
Cc1noc(NS(=O)(=O)c2ccsc2C(=O)Nc2ccc(O)nn2)c1Br [N-(4-bromo-3-methyl-5-isoxazolyl)-2-[(3-hydroxyl-6-pyridazinyl)aminocarbonyl]thiophene-3-sulfonamide] | 0.066 | 81.3 | –
COc1cccc(CC(=O)c2sccc2S(=O)(=O)Nc2onc(C)c2Br)c1 [N-(4-bromo-3-methyl-5-isoxazolyl)-2-[(3-methoxyphenyl)acetyl]thiophene-3-sulfonamide] | 0.03 | 19.1 | –
Cc1cccc(OC(=O)c2sccc2S(=O)(=O)Nc2onc(C)c2Br)c1 [N-(4-bromo-3-methyl-5-isoxazolyl)-2-[(3-methylphenoxy)carbonyl]thiophene-3-sulfonamide] | 1.2 | 111 | –

Continued by falling IC50 (human ETA receptors), values first:

IC50 (human ETA receptors) [µM] | IC50 (human ETB receptor) [µM] | inhibition at 100 µM (human ETB receptor; read-out: ETB % inhibition @ 100 μM, @ 100 μM, incubation at 24° C.) [%] | SMILES
1.73 | 111 | – | COc1ccc(OC(=O)c2sccc2S(=O)(=O)Nc2onc(C)c2Br)cc1 [N-(4-bromo-3-methyl-5-isoxazolyl)-2-[(4-methoxylphenoxy)carbonyl]thiophene-3-sulfonamide]
1.2 | 15 | – | Cc1ccc(OCc2sccc2S(=O)(=O)Nc2onc(C)c2Br)cc1 [N-(4-bromo-3-methyl-5-isoxazolyl)-2-[(4-methylphenoxy)methyl]thiophene-3-sulfonamide]
0.79 | 90 | – | COc1cccc(OC(=O)c2sccc2S(=O)(=O)Nc2onc(C)c2Br)c1 [N-(4-bromo-3-methyl-5-isoxazolyl)-2-[(3-methoxylphenoxy)carbonyl]thiophene-3-sulfonamide]
0.761 | – | 29 | COc1ccccc1OC(=O)c1sccc1S(=O)(=O)Nc1onc(C)c1Br [N-(4-bromo-3-methyl-5-isoxazolyl)-2-[(2-methoxylphenoxy)carbonyl]thiophene-3-sulfonamide]
0.57 | 1.3 | – | Cc1noc(NS(=O)(=O)c2ccsc2NC(=O)Nc2ccc3c(c2)OCO3)c1Br [N-(4-bromo-3-methyl-5-isoxazolyl)-2-[(3,4-methylenedioxy)phenylureido]thiophene-3-sulfonamide]
0.479 | 24.5 | – | Cc1cc(C)c(OC(=O)c2sccc2S(=O)(=O)Nc2onc(C)c2Br)c(C)c1 [N-(4-bromo-3-methyl-5-isoxazolyl)-2-[(2,4,6-trimethylphenoxy)carbonyl]thiophene-3-sulfonamide]
0.308 | 4.48 | – | Cc1ccc(OCc2sccc2S(=O)(=O)Nc2onc(C)c2Br)c(C)c1 [N-(4-bromo-3-methyl-5-isoxazolyl)-2-[(2,4-dimethylphenoxy)methyl]thiophene-3-sulfonamide]
0.291 | 43.2 | – | Cc1ccc(OC(=O)c2sccc2S(=O)(=O)Nc2onc(C)c2Br)c(C)c1 [N-(4-bromo-3-methyl-5-isoxazolyl)-2-[(2,4-dimethylphenoxy)carbonyl]thiophene-3-sulfonamide]
0.198 | 9.13 | – | Cc1ccc(CC(=O)c2sccc2S(=O)(=O)Nc2onc(C)c2Br)cc1 [N-(4-bromo-3-methyl-5-isoxazolyl)-2-[(4-methylphenyl)acetyl]thiophene-3-sulfonamide]
0.106 | 40.1 | – | Cc1ccc(CCc2sccc2S(=O)(=O)Nc2onc(C)c2Br)cc1 [N-(4-bromo-3-methyl-5-isoxazolyl)-2-[(4-methyl)phenethyl]thiophene-3-sulfonamide]
0.017 | 9.8 | – | Cc1noc(NS(=O)(=O)c2ccsc2C(=O)Nc2ccc3c(c2)OCO3)c1Br [N-(4-bromo-3-methyl-5-isoxazolyl)-2-[(3,4-methylenedioxyphenyl)aminocarbonyl]thiophene-3-sulfonamide]
0.013 | 38 | – | Cc1noc(NS(=O)(=O)c2ccsc2C(=O)Nc2ccccc2O)c1Br [N-(4-bromo-3-methyl-5-isoxazolyl)-2-[(2-hydroxyphenyl)aminocarbonyl]thiophene-3-sulfonamide]
0.0091 | 5.5 | – | Cc1noc(NS(=O)(=O)c2ccsc2C(=O)Cc2ccc3c(c2)OCO3)c1Br [N-(4-bromo-3-methyl-5-isoxazolyl)-2-[(3,4-methylenedioxy)phenylacetyl]thiophene-3-sulfonamide]
0.0073 | 6 | – | Cc1noc(NS(=O)(=O)c2ccsc2C(=O)Oc2ccc3c(c2)OCO3)c1Br [N-(4-bromo-3-methyl-5-isoxazolyl)-2-[(3,4-methylenedioxy)phenoxycarbonyl]thiophene-3-sulfonamide]
